Experimental findings from ChEMBL document CHEMBL4118241, “Structural basis for the selective inhibition of activated thrombin-activatable fibrinolysis inhibitor (TAFIa) by a selenium-containing inhibitor with chloro-aminopyridine as a basic group” (Bioorg Med Chem Lett, 2018) are described below.

The target of assay [1] is T1, Carboxypeptidase B2 (Homo sapiens, UniProt Q96IY4).
T1 sequence (Q96IY4 whole entry): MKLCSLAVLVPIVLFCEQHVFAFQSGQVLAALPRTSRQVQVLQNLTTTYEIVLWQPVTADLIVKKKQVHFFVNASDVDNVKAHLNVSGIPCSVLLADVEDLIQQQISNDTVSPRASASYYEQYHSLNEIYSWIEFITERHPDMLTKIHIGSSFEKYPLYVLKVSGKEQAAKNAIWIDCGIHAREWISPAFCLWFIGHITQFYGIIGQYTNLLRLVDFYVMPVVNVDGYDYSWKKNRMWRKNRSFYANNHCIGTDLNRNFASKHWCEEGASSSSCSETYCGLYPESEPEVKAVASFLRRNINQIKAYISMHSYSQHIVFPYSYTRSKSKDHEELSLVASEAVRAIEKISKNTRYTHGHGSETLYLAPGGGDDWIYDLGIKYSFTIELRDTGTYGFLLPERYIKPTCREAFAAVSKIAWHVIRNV
The assay can be described thus: Inhibition of human plasma activated thrombin-activatable fibrinolysis inhibitor after 10 mins in absence of DTT.

The target in assay [2] is T2, Carboxypeptidase N catalytic chain (Homo sapiens, UniProt P15169).
T2 sequence (P15169 whole entry): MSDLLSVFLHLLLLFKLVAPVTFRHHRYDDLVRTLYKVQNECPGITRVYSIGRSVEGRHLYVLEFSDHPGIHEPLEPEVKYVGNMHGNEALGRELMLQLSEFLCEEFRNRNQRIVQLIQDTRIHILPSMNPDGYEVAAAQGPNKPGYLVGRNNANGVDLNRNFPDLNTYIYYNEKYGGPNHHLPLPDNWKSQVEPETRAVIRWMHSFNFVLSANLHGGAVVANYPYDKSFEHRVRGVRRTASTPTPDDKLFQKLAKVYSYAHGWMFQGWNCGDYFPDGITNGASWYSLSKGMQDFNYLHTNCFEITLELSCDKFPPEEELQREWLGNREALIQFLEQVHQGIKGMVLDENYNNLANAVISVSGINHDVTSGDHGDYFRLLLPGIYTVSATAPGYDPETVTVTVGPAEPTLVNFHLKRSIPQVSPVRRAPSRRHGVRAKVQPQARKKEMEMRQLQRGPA
Put plainly: Inhibition of human carboxypeptidase N preincubated for 10 mins followed by hippuryl-lysine substrate addition measured after 30 mins in presence of DTT.

Assay [3] deals with T2, Carboxypeptidase N catalytic chain. Put plainly: Inhibition of human carboxypeptidase N preincubated for 10 mins followed by hippuryl-lysine substrate addition measured after 30 mins in absence of DTT.
For assay [4], the target named is T1, Carboxypeptidase B2. Put plainly: Inhibition of human plasma activated thrombin-activatable fibrinolysis inhibitor after 10 mins in presence of DTT.
In assay [5] the target is T3, Carboxypeptidase B (Sus scrofa, UniProt P09955).
T3 sequence (P09955 whole entry): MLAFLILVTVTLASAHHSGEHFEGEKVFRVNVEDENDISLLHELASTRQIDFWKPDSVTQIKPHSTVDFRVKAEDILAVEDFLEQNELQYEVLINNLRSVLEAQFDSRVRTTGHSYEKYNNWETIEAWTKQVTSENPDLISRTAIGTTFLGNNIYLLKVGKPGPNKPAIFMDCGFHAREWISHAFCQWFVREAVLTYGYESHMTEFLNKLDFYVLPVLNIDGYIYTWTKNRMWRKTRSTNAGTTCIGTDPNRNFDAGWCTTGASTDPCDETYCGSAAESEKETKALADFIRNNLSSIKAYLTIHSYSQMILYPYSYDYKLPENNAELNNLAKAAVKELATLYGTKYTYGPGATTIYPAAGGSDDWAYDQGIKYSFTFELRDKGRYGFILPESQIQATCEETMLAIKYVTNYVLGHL
Put plainly: Inhibition of porcine pancreas carboxypeptidase B after 10 mins in presence of DTT.

The species entered for the next assay is Homo sapiens. The assay can be described thus: Selectivity ratio of IC50 for human carboxypeptidase N to IC50 for human plasma activated thrombin-activatable fibrinolysis inhibitor.
Assay [6] concerns the target T3, Carboxypeptidase B. The assay can be described thus: Inhibition of porcine pancreas carboxypeptidase B after 10 mins in absence of DTT.

`CCC(=O)[Se]CC(Cc1cnc(N)c(Cl)c1)C(=O)O` (racemic): the IC50 (commonly the point on the concentration scale where inhibition reaches its midpoint) against Carboxypeptidase B2 [1] was 370000 nM; in assay [2], above 380000 nM; in assay [3] it was above 380000 nM; at Carboxypeptidase B2 [4], 1.5 nM; on Carboxypeptidase B [5] it was 29 nM; against Carboxypeptidase B [6], 2500 nM. Moreover, the Ratio IC50 in the assay listed under Homo sapiens was above 250000.
